Measured values from ChEMBL document CHEMBL1201862, “PubChem BioAssay data set” (2004).
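Exposure lasted 48 hours, with cells grown in 96-well plates and compounds tested at five concentrations. GI50: concentration for 50% inhibition of growth.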 Activity calls are given as the source filed them. No stated cut-off is given here; in the data, active = GI50 up to about 1.1 µM and inactive = higher.

What was measured:
Test in all cases: NCI tumour cell line growth inhibition, 48 h
[1] = tested on: SF-268
[2] = tested on: SW-620
[3] = tested on: KM12
[4] = tested on: SK-MEL-5
[5] = tested on: HCC 2998
[6] = tested on: OVCAR-4
[7] = tested on: PC-3
[8] = tested on: NCI-H460
[9] = tested on: EKVX
[10] = tested on: OVCAR-3
[11] = tested on: HCT-116
[12] = tested on: SR
[13] = tested on: 786-0
[14] = tested on: NCI-H226
[15] = tested on: SK-MEL-2
[16] = tested on: HOP-62
[17] = tested on: T47D
[18] = tested on: SNB-19
[19] = tested on: MDA-N
[20] = tested on: SNB-75
[21] = tested on: MDA-MB-435
[22] = tested on: NCI/ADR-RES
[23] = tested on: HOP-92
[24] = tested on: TK-10
[25] = tested on: LOX IMVI
[26] = tested on: RXF 393
[27] = tested on: M14
[28] = tested on: CAKI-1
[29] = tested on: NCI-H23
[30] = tested on: MDA-MB-231
[31] = tested on: Malme-3M
[32] = tested on: A549
[33] = tested on: UACC-62
[34] = tested on: SF-295
[35] = tested on: K562
[36] = tested on: HT-29
[37] = tested on: SK-MEL-28
[38] = tested on: UACC-257
[39] = tested on: IGROV-1
[40] = tested on: BT-549
[41] = tested on: A498
[42] = tested on: Hs-578T
[43] = tested on: MOLT-4
[44] = tested on: U-251
[45] = tested on: OVCAR-5
[46] = tested on: HCT-15
[47] = tested on: SN12C
[48] = tested on: ACHN
[49] = tested on: NCI-H522
[50] = tested on: UO-31
[51] = tested on: DU-145
[52] = tested on: CCRF-CEM
[53] = tested on: RPMI-8226
[54] = tested on: MCF7
[55] = tested on: SF-539
[56] = tested on: HL-60
[57] = tested on: COLO 205
[58] = tested on: OVCAR-8

CCOc1ccccc1Nc1ccc(N)cc1S(=O)(=O)O
GI50 [1]: > 100 µM (inactive)
GI50 [2]: > 100 µM (inactive)
GI50 [3]: > 100 µM (inactive)
GI50 [4]: > 100 µM (inactive)
GI50 [5]: > 100 µM (inactive)
GI50 [6]: > 100 µM (inactive)
GI50 [7]: > 100 µM (inactive)
GI50 [8]: > 100 µM (inactive)
GI50 [9]: > 100 µM (inactive)
GI50 [10]: > 100 µM (inactive)
GI50 [11]: > 100 µM (inactive)
GI50 [12]: > 100 µM (inactive)
GI50 [13]: > 100 µM (inactive)
GI50 [14]: > 100 µM (inactive)
GI50 [15]: > 100 µM (inactive)
GI50 [16]: > 100 µM (inactive)
GI50 [17]: > 100 µM (inactive)
GI50 [18]: > 100 µM (inactive)
GI50 [19]: > 100 µM (inactive)
GI50 [20]: > 100 µM (inactive)
GI50 [21]: > 100 µM (inactive)
GI50 [22]: > 100 µM (inactive)
GI50 [23]: > 100 µM (inactive)
GI50 [24]: > 100 µM (inactive)
GI50 [25]: > 100 µM (inactive)
GI50 [26]: > 100 µM (inactive)
GI50 [27]: > 100 µM (inactive)
GI50 [28]: > 100 µM (inactive)
GI50 [29]: > 100 µM (inactive)
GI50 [30]: > 100 µM (inactive)
GI50 [31]: > 100 µM (inactive)
GI50 [32]: > 100 µM (inactive)
GI50 [33]: > 100 µM (inactive)
GI50 [34]: > 100 µM (inactive)
GI50 [35]: > 100 µM (inactive)
GI50 [36]: > 100 µM (inactive)
GI50 [37]: > 100 µM (inactive)
GI50 [38]: > 100 µM (inactive)
GI50 [39]: > 100 µM (inactive)
GI50 [40]: > 100 µM (inactive)
GI50 [41]: > 100 µM (inactive)
GI50 [42]: > 100 µM (inactive)
GI50 [43]: > 100 µM (inactive)
GI50 [44]: > 100 µM (inactive)
GI50 [45]: > 100 µM (inactive)
GI50 [46]: > 100 µM
GI50 [47]: > 100 µM (inactive)
GI50 [48]: > 100 µM (inactive)
GI50 [49]: > 100 µM (inactive)
GI50 [50]: > 100 µM (inactive)
GI50 [51]: > 100 µM (inactive)

NC(=O)Nc1ccc(C(=O)NCCCNC(=O)c2ccc(NC(N)=O)cc2)cc1
GI50 [1]: > 100 µM (inactive)
GI50 [2]: > 100 µM (inactive)
GI50 [3]: > 100 µM (inactive)
GI50 [4]: > 100 µM (inactive)
GI50 [5]: > 100 µM (inactive)
GI50 [6]: > 100 µM (inactive)
GI50 [7]: > 100 µM (inactive)
GI50 [8]: > 100 µM (inactive)
GI50 [9]: > 100 µM (inactive)
GI50 [11]: > 100 µM (inactive)
GI50 [52]: > 100 µM (inactive)
GI50 [53]: > 100 µM (inactive)
GI50 [12]: > 100 µM (inactive)
GI50 [14]: > 100 µM (inactive)
GI50 [15]: > 100 µM (inactive)
GI50 [54]: > 100 µM (inactive)
GI50 [16]: > 100 µM (inactive)
GI50 [17]: > 100 µM (inactive)
GI50 [18]: > 100 µM (inactive)
GI50 [19]: > 100 µM (inactive)
GI50 [20]: > 100 µM (inactive)
GI50 [21]: > 100 µM (inactive)
GI50 [22]: > 100 µM (inactive)
GI50 [23]: > 100 µM (inactive)
GI50 [55]: > 100 µM (inactive)
GI50 [24]: > 100 µM (inactive)
GI50 [25]: > 100 µM (inactive)
GI50 [26]: > 100 µM (inactive)
GI50 [27]: > 100 µM (inactive)
GI50 [28]: > 100 µM (inactive)
GI50 [29]: > 100 µM (inactive)
GI50 [31]: > 100 µM (inactive)
GI50 [32]: > 100 µM (inactive)
GI50 [33]: > 100 µM (inactive)
GI50 [35]: > 100 µM (inactive)
GI50 [36]: > 100 µM (inactive)
GI50 [56]: > 100 µM (inactive)
GI50 [37]: > 100 µM (inactive)
GI50 [38]: > 100 µM (inactive)
GI50 [39]: > 100 µM (inactive)
GI50 [57]: > 100 µM (inactive)
GI50 [40]: > 100 µM (inactive)
GI50 [41]: > 100 µM (inactive)
GI50 [42]: > 100 µM (inactive)
GI50 [43]: > 100 µM (inactive)
GI50 [44]: > 100 µM (inactive)
GI50 [45]: > 100 µM (inactive)
GI50 [46]: > 100 µM
GI50 [48]: > 100 µM (inactive)
GI50 [49]: > 100 µM (inactive)
GI50 [50]: > 100 µM (inactive)
GI50 [51]: > 100 µM (inactive)
GI50 [58]: > 100 µM (inactive)

O=c1c(C(c2cnc3ccccc3c2)c2c(O)oc3ccccc3c2=O)c(O)oc2ccccc12
GI50 [1]: 23.8 µM (inactive)
GI50 [2]: 29.6 µM (inactive)
GI50 [3]: 37.4 µM (inactive)
GI50 [4]: 57.8 µM (inactive)
GI50 [6]: 33.7 µM (inactive)
GI50 [7]: 48.5 µM (inactive)
GI50 [8]: 27.6 µM (inactive)
GI50 [9]: 99.3 µM (inactive)
GI50 [10]: 91.8 µM (inactive)
GI50 [11]: 30.3 µM (inactive)
GI50 [52]: 55.1 µM (inactive)
GI50 [53]: 29 µM (inactive)
GI50 [13]: 44.5 µM (inactive)
GI50 [14]: 23.1 µM (inactive)
GI50 [15]: 47.2 µM (inactive)
GI50 [16]: 46.5 µM (inactive)
GI50 [17]: > 100 µM (inactive)
GI50 [18]: 23.2 µM (inactive)
GI50 [19]: 21.4 µM (inactive)
GI50 [20]: 13.5 µM (inactive)
GI50 [21]: 36.3 µM (inactive)
GI50 [22]: > 100 µM (inactive)
GI50 [23]: 20.2 µM (inactive)
GI50 [24]: 49.4 µM (inactive)
GI50 [25]: 40.1 µM (inactive)
GI50 [28]: 41.3 µM (inactive)
GI50 [29]: 41.7 µM (inactive)
GI50 [30]: 92.7 µM (inactive)
GI50 [31]: 35.2 µM (inactive)
GI50 [33]: 17.6 µM (inactive)
GI50 [35]: 35.4 µM (inactive)
GI50 [36]: 33.4 µM (inactive)
GI50 [56]: 37.8 µM (inactive)
GI50 [37]: 25.9 µM (inactive)
GI50 [38]: 37.3 µM (inactive)
GI50 [39]: > 100 µM (inactive)
GI50 [57]: 60.7 µM (inactive)
GI50 [40]: 20.7 µM (inactive)
GI50 [41]: 92.5 µM (inactive)
GI50 [42]: 22.4 µM (inactive)
GI50 [43]: 27.7 µM (inactive)
GI50 [44]: 29 µM (inactive)
GI50 [46]: 44.6 µM
GI50 [47]: 25.5 µM (inactive)
GI50 [49]: 36.1 µM (inactive)
GI50 [50]: 29.4 µM (inactive)
GI50 [51]: > 100 µM (inactive)
GI50 [58]: 33 µM (inactive)
